In patent US12691092B2, “Method for reducing cutaneous skin scarring by pre-emptive priming and compounds and compositions for its implementation” (SOS SCIENCE OF SKIN LTD, priority 2020, dated 2026):

Tested on: human skin scarring model
Experiment: Skin thickness by high frequency ultrasound (HFUS)
Format: in vivo
Conditions: significant in group-1 week 8 (p=0.002); group-2 weeks 6, 8; group-3 weeks 5-8; group-4 weeks 3, 5-8 (p<0.01)
Procedure: A double-blind randomized placebo-controlled trial was conducted using a temporal punch-biopsy model. The punch biopsy and topical application methodology used in the study is illustrated in FIG. 1, namely showing pre-injury pre-emptive priming (7-days), pre-injury pre-emptive priming (3-days), day of injury (immediate application on day 0), post-injury (delayed 2 weeks post injury) including biopsy time points and time of topical applications. Each group applied both placebo and topical formulations twice daily for the duration of the study until week 8, with only the starting time point differing between groups Participants were split into 4 groups (n=10 in each group) in order to compare different modes (timings) of commencement of the topical application: • Group-1: Pre-emptive Priming (7-days): pre-injury • Group-2: Pre-emptive Priming (3-days): pre-injury • Group-3: Immediate (0-day): day-of-injury • Group-4: Delayed (14-days): post-injury Clinical quantitative devices were used to objectively monitor cutaneous healing at weekly intervals and punch biopsies were performed on day 0 (uninjured skin) and at weeks 4 and 8 for protein and gene expression analyses. […] Structural changes in the scars were assessed clinically by high frequency ultrasound (HFUS) and elasticity probe, and elastin and collagen markers. […]

O=C(OC1Cc2c(O)cc(O)cc2OC1c1cc(O)c(O)c(O)c1)c1cc(O)c(O)c(O)c1 (single isomer, unassigned; (-)) [EGCG, (-)-epigallocatechin-3-gallate]
HFUS skin thickness, EGCG scars compared to placebo scars: lower
